# Data taken from ChEMBL document CHEMBL5052852, “Substituted hydantoinamides as adamts7 antagonists” (2021).
# Assays:
# [1] = Inhibition of recombinant rat/human ADAMTS7 hybrid using HiLyteFluor-488 DELSSMVLELRGLRT-K(QXL520)-E-NH2 as substrate incubated for 120 mins and measured by FRET assay
# [2] = Inhibition of recombinant rat/human ADAMTS12 hybrid using HiLyteFluor-488 DELSSMVLELRGLRT-K(QXL520)-E-NH2 as substrate incubated for 120 mins and measured by FRET assay
Structure (SMILES),IC50 [1] [nM],IC50 [2] [nM]
O=C1NC(=O)C(CNC(=O)c2cnn(-c3ccccc3)n2)(C2CCC2)N1 (stereo in doubt),78,11000
CCCCC1(CNC(=O)c2cnn(-c3ccc(F)cc3)n2)NC(=O)NC1=O (stereo in doubt),48,3100
CCCCC1(CNC(=O)c2cnn(-c3ccccc3)n2)NC(=O)NC1=O (stereo in doubt),191,19000
CC(C)C1(CNC(=O)c2cnn(-c3cc(F)c(F)c(F)c3)n2)NC(=O)NC1=O (stereo in doubt),20,3300
CC(C)C1(CNC(=O)c2cnn(-c3cccc(C#N)c3)n2)NC(=O)NC1=O (stereo in doubt),78,2600
Cn1ccnc1C1(CNC(=O)c2cnn(-c3ccc(F)cc3)n2)NC(=O)NC1=O (stereo in doubt),2,130
CC(C)C1(CNC(=O)c2cnn(-c3ccccc3)n2)NC(=O)NC1=O (stereo in doubt),76,10000
O=C1NC(=O)C(CNC(=O)c2cnn(-c3ccc(F)c(Cl)c3)n2)(c2nccs2)N1 (stereo in doubt),14,780
O=C1NC(=O)C(CNC(=O)c2cnn(-c3ccc(Cl)c(F)c3)n2)(c2nccs2)N1 (stereo in doubt),5,400
Cc1scnc1C1(CNC(=O)c2cnn(-c3ccc(F)cc3)n2)NC(=O)NC1=O (stereo in doubt),2,200
O=C1NC(=O)C(CNC(=O)c2cnn(-c3ccc(F)cc3)n2)(c2nccs2)N1 (stereo in doubt),15,1400
CC(C)C1(CNC(=O)c2cnn(-c3ccc(F)c(F)c3)n2)NC(=O)NC1=O (stereo in doubt),7,910
O=C1NC(=O)C(CNC(=O)c2cnn(-c3ccc(F)cc3)n2)(c2ncsc2C(F)(F)F)N1 (stereo in doubt),27,3500
CC(C)C1(CNC(=O)c2cnn(-c3ccc(Cl)c(F)c3)n2)NC(=O)NC1=O (stereo in doubt),7,1000
CC(C)C1(CNC(=O)c2cnn(-c3cccc(F)c3)n2)NC(=O)NC1=O (stereo in doubt),13,2300
O=C1NC(=O)C(CNC(=O)c2cnn(-c3ccc(F)cc3)n2)(CC2CC2)N1 (stereo in doubt),130,6200

Structure (SMILES),IC50 [1] [nM],IC50 [2] [nM]
Cn1ccnc1C1(CNC(=O)c2cnn(-c3cc(F)c(F)c(F)c3)n2)NC(=O)NC1=O (stereo in doubt),3,108
CC1(CNC(=O)c2cnn(-c3ccc(F)cc3)n2)NC(=O)NC1=O (stereo in doubt),83,8900
O=C1NC(=O)C(CNC(=O)c2cnn(-c3ccc(F)cc3)n2)(C2CCCC2)N1 (stereo in doubt),33,5900
O=C1NC(=O)C(CNC(=O)c2cnn(-c3ccc(F)cc3)n2)(C2CCOCC2)N1 (stereo in doubt),37,1500
O=C1NC(=O)C(CNC(=O)c2cnn(-c3ccccc3)n2)(C2CCCC2)N1 (stereo in doubt),120,11000
CC(C)(C)C1(CNC(=O)c2cnn(-c3ccccc3)n2)NC(=O)NC1=O (stereo in doubt),47,13100
CC(C)C1(CNC(=O)c2cnn(-c3ccc(F)cc3)n2)NC(=O)NC1=O (stereo in doubt),8,2770
O=C1NC(=O)C(CNC(=O)c2cnn(-c3ccc(F)cc3F)n2)(c2nccs2)N1 (stereo in doubt),78,5500
CCCC1(CNC(=O)c2cnn(-c3ccc(F)cc3)n2)NC(=O)NC1=O (stereo in doubt),60,5100
CCC(C)C1(CNC(=O)c2cnn(-c3ccc(F)cc3)n2)NC(=O)NC1=O (stereo in doubt; form 1),62,2900
CC1(C)CC1C1(CNC(=O)c2cnn(-c3ccccc3)n2)NC(=O)NC1=O (stereo in doubt; form 1),320,13000
O=C1NC(=O)C(CNC(=O)c2cnn(-c3ccccc3)n2)(C2CCCOC2)N1 (stereo in doubt; form 1),150,4000
CCC(C)C1(CNC(=O)c2cnn(-c3ccc(F)cc3)n2)NC(=O)NC1=O (stereo in doubt; form 2),37,1000
CC1(C)CC1C1(CNC(=O)c2cnn(-c3ccccc3)n2)NC(=O)NC1=O (stereo in doubt; form 2),38,2000
O=C1NC(=O)C(CNC(=O)c2cnn(-c3ccccc3)n2)(C2CCCOC2)N1 (stereo in doubt; form 2),250,6500
O=C1NC(=O)C(CNC(=O)c2cnn(-c3ccc(F)cc3)n2)(c2ccccn2)N1 (stereo in doubt; form 2),590,50000
